Reference: patent US20220298141A1, “ENZYME INHIBITORS” (KALVISTA PHARMACEUTICALS LIMITED, priority 2019, published 2022)

These compounds were tested against T1, Human Factor XIIa (Homo sapiens, UniProt P00748) (assay: Determination of Factor XIIa inhibitory activity in vitro (fluorogenic substrate H-DPro-Phe-Arg-AFC)). Settings: Human Factor XIIa (Enzyme Research Laboratories), 25° C., read-out: Human FXIIa IC50.
T1 construct: purchased Enzyme Research Laboratories
T1 sequence (P00748 373-615 limits assumed): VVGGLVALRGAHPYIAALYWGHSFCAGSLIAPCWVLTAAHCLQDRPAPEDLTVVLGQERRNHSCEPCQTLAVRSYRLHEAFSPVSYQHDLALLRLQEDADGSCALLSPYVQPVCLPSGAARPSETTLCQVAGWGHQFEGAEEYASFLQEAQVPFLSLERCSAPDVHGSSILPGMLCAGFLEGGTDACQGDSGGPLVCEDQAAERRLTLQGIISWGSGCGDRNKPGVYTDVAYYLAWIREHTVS
T1 sequence (P00748 20-372 partner limits assumed): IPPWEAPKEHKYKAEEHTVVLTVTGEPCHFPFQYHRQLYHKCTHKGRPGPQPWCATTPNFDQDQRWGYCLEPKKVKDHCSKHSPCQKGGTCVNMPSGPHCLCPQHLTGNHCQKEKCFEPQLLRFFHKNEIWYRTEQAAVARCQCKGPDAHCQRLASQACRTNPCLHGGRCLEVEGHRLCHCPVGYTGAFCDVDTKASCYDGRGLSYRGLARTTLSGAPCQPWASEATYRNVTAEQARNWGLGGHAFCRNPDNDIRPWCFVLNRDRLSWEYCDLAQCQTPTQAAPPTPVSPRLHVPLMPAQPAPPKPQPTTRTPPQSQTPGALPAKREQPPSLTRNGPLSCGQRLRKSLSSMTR
Assay type: biochemical
Description: Determination of the % Inhibition for FXIIa
Factor XIIa inhibitory activity in vitro was determined using standard published methods (see e.g. Shori et al., Biochem. Pharmacol., 1992, 43, 1209; Baeriswyl et al., ACS Chem. Biol., 2015, 10 (8) 1861; Bouckaert et al., European Journal of Medicinal Chemistry 110 (2016) 181). Human Factor XIIa (Enzyme Research Laboratories) was incubated at 25° C. with the fluorogenic substrate H-DPro-Phe-Arg-AFC and various concentrations of the test compound. Residual enzyme activity (initial rate of reaction) was determined by measuring the […] and the IC50 value for the test compound was determined.

IC50 [µM] | Structure (SMILES)
10 to 40 | Nc1nccc2cc(CNC(=O)c3cnc(Oc4ccc(Cl)cc4)c(Cl)c3)ccc12 [Example 13.01]
10 to 40 | COc1ccc(Oc2ncc(C(=O)NCc3ccc4c(N)nccc4c3)cc2Cl)cc1 [Example 13.02]
10 to 40 | Nc1nccc2cc(CNC(=O)c3cnc(Oc4cccc(N5CCOCC5)c4)c(Cl)c3)ccc12 [Example 13.03]
10 to 40 | Nc1nccc2cc(CNC(=O)c3cnc(OCc4cccnc4)c(Cl)c3)ccc12 [Example 13.04]
10 to 40 | Nc1nccc2cc(CNC(=O)c3cnc(Oc4ccccc4)c(Cl)c3)ccc12 [Example 13.05]
10 to 40 | Nc1nccc2cc(CNC(=O)c3cnc(Oc4ccccc4Cl)c(Cl)c3)ccc12 [Example 13.06]
10 to 40 | N#Cc1ccc(Oc2ncc(C(=O)NCc3ccc4c(N)nccc4c3)cc2Cl)cc1 [Example 13.07]
10 to 40 | N#Cc1cccc(Oc2ncc(C(=O)NCc3ccc4c(N)nccc4c3)cc2Cl)c1 [Example 13.08]
3 to 10 | N#Cc1ccccc1Oc1ncc(C(=O)NCc2ccc3c(N)nccc3c2)cc1Cl [Example 13.09, N-((1-aminoisoquinolin-6-yl)methyl)-5-chloro-6-(2-cyanophenoxy)nicotinamide]

The next lines start with the compound.

Structure (SMILES) | IC50 [µM]
CN(C)CCCOc1cccc(CNc2ncc(Cl)cc2C(=O)NCc2ccc3c(N)nccc3c2)c1 [Example 11.07] | 1 to 3
CN1CCN(c2ccccc2CNc2ncc(C(=O)NCc3ccc4c(N)nccc4c3)cc2Cl)CC1 [Example 11.08] | 10 to 40
Nc1nccc2cc(CNC(=O)c3cnc(NCC4CCN(Cc5ccccc5)CC4)c(Cl)c3)ccc12 [Example 11.10] | 3 to 10
COc1ccc(CNc2ncc(C(=O)NCc3ccc4c(N)nccc4c3)cc2Cl)cc1 [Example 11.11] | 10 to 40
CS(=O)(=O)c1cccc(CNc2ncc(C(=O)NCc3ccc4c(N)nccc4c3)cc2Cl)c1 [Example 11.12] | 3 to 10
Nc1nccc2cc(CNC(=O)c3cnc(NC4CCOCC4)c(Cl)c3)ccc12 [Example 11.13] | 10 to 40
Nc1nccc2cc(CNC(=O)c3cnc(NCCN4CCCCC4)c(Cl)c3)ccc12 [Example 11.14] | 3 to 10
CN1CCN(CCNc2ncc(C(=O)NCc3ccc4c(N)nccc4c3)cc2Cl)CC1 [Example 11.15] | 10 to 40
CN1CCC(CNc2ncc(C(=O)NCc3ccc4c(N)nccc4c3)cc2Cl)CC1 [Example 11.16] | 3 to 10
Nc1nccc2cc(CNC(=O)c3cnc(NCCn4ccnc4)c(Cl)c3)ccc12 [Example 11.17] | 10 to 40
Nc1nccc2cc(CNC(=O)c3cnc(NCc4ccccn4)c(Cl)c3)ccc12 [Example 11.18] | 10 to 40
Nc1nccc2cc(CNC(=O)c3cnc(NCc4cccnc4)c(Cl)c3)ccc12 [Example 11.19] | 10 to 40
CC(C)N(CCNc1ncc(C(=O)NCc2ccc3c(N)nccc3c2)cc1Cl)C(C)C [Example 11.20, N-((1-aminoisoquinolin-6-yl)methyl)-5-chloro-6-((2-(diisopropylamino)ethyl)amino)nicotinamide] | 1 to 3
CN(C)CCCNc1ncc(C(=O)NCc2ccc3c(N)nccc3c2)cc1Cl [Example 11.21] | 3 to 10
CC(C)N1CCN(CCCNc2ncc(C(=O)NCc3ccc4c(N)nccc4c3)cc2Cl)CC1 [Example 11.22] | 3 to 10
CN(C)CCOc1ccc(CNc2ncc(C(=O)NCc3ccc4c(N)nccc4c3)cc2Cl)cc1 [Example 11.23, N-((1-aminoisoquinolin-6-yl)methyl)-5-chloro-6-((4-(2-(dimethylamino)ethoxy)benzyl)amino)nicotinamide] | 3 to 10
CN1CCN(CCCNc2ncc(C(=O)NCc3ccc4c(N)nccc4c3)cc2Cl)CC1 [Example 11.24] | 3 to 10
COc1ccc(Nc2ncc(C(=O)NCc3ccc4c(N)nccc4c3)cc2Cl)cc1 [Example 11.25] | 10 to 40
CN(C)c1ccc(Nc2ncc(C(=O)NCc3ccc4c(N)nccc4c3)cc2Cl)cc1 [Example 11.26] | 10 to 40
Nc1nccc2cc(CNC(=O)c3cnc(Nc4ccc(N5CCOCC5)cc4)c(Cl)c3)ccc12 [Example 11.27] | 10 to 40
